Assay: activity of peptide, test not specified

In the case of “CYS-THR-THR-ASN-TYR-THR-CYS (CTTNYTC; printed: CYS-THR-THR-ASN-TYR-THR-CYS) [seven amino acid peptide]”, the activity is reported as “active”.

Reference: patent publication EP0249390A2, “Synthetic peptides related to the HIV glycoprotein gp 120” (Pert, Candace B., priority 1986, dated 1987)
